Holding throughout (format): biochemical
For one experiment, the target named is T1, GASC1 (Homo sapiens, UniProt Q9H3R0).
T1 construct: 6×His tagged recombinant GASC1 (N 350aa) was purified from E. Coli BL21(DE3); 6xHis; made in house; host or cells: E. coli BL21(DE3)
T1 sequence (Q9H3R0 1-350 limits assumed): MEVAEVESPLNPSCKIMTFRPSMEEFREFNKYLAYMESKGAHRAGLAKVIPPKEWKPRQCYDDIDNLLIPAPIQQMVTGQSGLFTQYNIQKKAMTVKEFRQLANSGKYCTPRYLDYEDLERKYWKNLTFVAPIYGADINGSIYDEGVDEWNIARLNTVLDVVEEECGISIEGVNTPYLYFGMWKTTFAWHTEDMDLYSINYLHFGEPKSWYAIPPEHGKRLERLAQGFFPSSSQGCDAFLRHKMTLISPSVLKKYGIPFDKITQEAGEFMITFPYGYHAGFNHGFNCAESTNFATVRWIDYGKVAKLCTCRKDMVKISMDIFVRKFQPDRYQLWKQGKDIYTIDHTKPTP
The experiment can be described thus: GASC1 demethylation assay on H3K9Me3 peptide (RapidFire HT-MS). The note with it: read-out: GASC1 Inhibition. How it is done: 6×His tagged recombinant GASC1 (N 350aa) was purified from E. Coli BL21(DE3) to near homogeneity. The demethylation reaction buffer contained 50 mM TrisCl pH 7.5, 0.01% Triton X-100, 5% glycerol, 1 mM ascorbate (Cat# A4034, Sigma Aldrich), 5 μM α-ketoglutarate (# K2010, Sigma Aldrich) and 20 μM Fe2(NH4)2(SO4)2 (Cat# F1543, Sigma Aldrich). In 25 μL demethylation reaction system, 400 nM recombinant GASC1 and 20 μM H3K9me3 peptide (1-21 aa) were incubated with compounds for 10 minutes, and then α-ketoglutarate and Fe2(NH4)2(SO4)2 were added to initiate the reaction. All of the reactions were incubated for 45 minutes at room temperature, and then 25 μl of 1 N HCl was added to quench the reactions. After termination, plates were sealed and frozen at −80° C. and shipped on dry ice to BioTrove Inc. (Woburn, Mass.) for analysis.
All the reactions were read by RapidFire™ HT-MS platform developed in BioTrove Inc, and the method has been described in detail previously (Assay and Drug Development Technologies, 2004; 2(4): 373-381). Briefly, at BioTrove, plates were thawed and immediately analyzed using RapidFire™ system coupled to a Sciex API4000 triple quadrapole mass spectrometer. The samples were delivered directly from the plate to a clean-up cartridge (BioTrove column A) to remove nonvolatile assay components with 0.1% formic acid in a 3-sec wash cycle. The peptide substrate and demethylated product were coeluted to the mass spectrometer with 80% acetonitrile, 0.1% formic acid. Both the substrate and product signals were read at their +5 charge species, and the conversion from substrate to product is assessed by [H3K9me2 Read]/[H3K9me2 Read+H3K9me3 Read].

A further experiment concerns the target T2, JARID1A (Homo sapiens, UniProt P29375).
T2 construct: FLAG tagged full length recombinant JARID1A and PLU1 proteins were purified from Sf9 insect cells; FLAG; made in house; host or cells: Sf9 insect cells
As to the kind of experiment: JARID1A demethylase assay on H3K4Me3 peptide (RapidFire HT-MS). How it is done:
(§1) FLAG tagged full length recombinant JARID1A and PLU1 proteins were purified from Sf9 insect cells to near homogeneity. The demethylation reaction buffer contained 50 mM TrisCl pH 7.5, 0.01% Triton X-100, 0.005% BSA, 1 mM ascorbate (Cat# A4034, Sigma Aldrich), 1.7 μM α-ketoglutarate (# K2010, Sigma Aldrich) and 20 μM Fe2(NH4)2(SO4)2 (Cat# F1543, Sigma Aldrich). In a 25 μL demethylation reaction system, 20 nM recombinant JARID1A or PLU1 proteins and 4 μM H3K4me3 peptide (1-21 aa), which can be biotinylated or unlabelled, were incubated with compounds for 10 minutes, and then α-ketoglutarate and Fe2(NH4)2(SO4)2 were added to initiate the reaction. All of the reactions were incubated for 45 minutes at room temperature, and then 25 μl of 1 N HCl was added to quench the reactions. After termination, plates were sealed and frozen at −80° C. for analysis.
(§2) All the reactions were read by RapidFire™ HT-MS platform developed in BioCius Inc, and described in detail (Assay and Drug Development Technologies, 2004; 2(4): 373-381). Briefly, plates were thawed and immediately analyzed using RapidFire™ system coupled to a Sciex API4000 triple quadrapole mass spectrometer. The samples were delivered directly from the plate to a clean-up cartridge (BioCius column A) to remove nonvolatile assay components with 0.1% formic acid in a 3-sec wash cycle. The peptide substrate and demethylated product were coeluted to the mass spectrometer with 80% acetonitrile, 0.1% formic acid. Both the substrate and product signals were read at their +5 charge species, and the conversion from substrate to product assessed by [H3K4me2 Read]/[H3K4me2 Read+H3K4me3 Read].

A further experiment has as its target T3, PLU-1 (Homo sapiens, UniProt Q9UGL1).
T3 construct: FLAG tagged full length recombinant JARID1A and PLU1 proteins were purified from Sf9 insect cells; FLAG; made in house; host or cells: Sf9 insect cells
As to the kind of experiment: PLU-1 demethylase assay on H3K4Me3 peptide (RapidFire HT-MS). Here is the method:
as §1, §2

T2 sequence (P29375 whole entry): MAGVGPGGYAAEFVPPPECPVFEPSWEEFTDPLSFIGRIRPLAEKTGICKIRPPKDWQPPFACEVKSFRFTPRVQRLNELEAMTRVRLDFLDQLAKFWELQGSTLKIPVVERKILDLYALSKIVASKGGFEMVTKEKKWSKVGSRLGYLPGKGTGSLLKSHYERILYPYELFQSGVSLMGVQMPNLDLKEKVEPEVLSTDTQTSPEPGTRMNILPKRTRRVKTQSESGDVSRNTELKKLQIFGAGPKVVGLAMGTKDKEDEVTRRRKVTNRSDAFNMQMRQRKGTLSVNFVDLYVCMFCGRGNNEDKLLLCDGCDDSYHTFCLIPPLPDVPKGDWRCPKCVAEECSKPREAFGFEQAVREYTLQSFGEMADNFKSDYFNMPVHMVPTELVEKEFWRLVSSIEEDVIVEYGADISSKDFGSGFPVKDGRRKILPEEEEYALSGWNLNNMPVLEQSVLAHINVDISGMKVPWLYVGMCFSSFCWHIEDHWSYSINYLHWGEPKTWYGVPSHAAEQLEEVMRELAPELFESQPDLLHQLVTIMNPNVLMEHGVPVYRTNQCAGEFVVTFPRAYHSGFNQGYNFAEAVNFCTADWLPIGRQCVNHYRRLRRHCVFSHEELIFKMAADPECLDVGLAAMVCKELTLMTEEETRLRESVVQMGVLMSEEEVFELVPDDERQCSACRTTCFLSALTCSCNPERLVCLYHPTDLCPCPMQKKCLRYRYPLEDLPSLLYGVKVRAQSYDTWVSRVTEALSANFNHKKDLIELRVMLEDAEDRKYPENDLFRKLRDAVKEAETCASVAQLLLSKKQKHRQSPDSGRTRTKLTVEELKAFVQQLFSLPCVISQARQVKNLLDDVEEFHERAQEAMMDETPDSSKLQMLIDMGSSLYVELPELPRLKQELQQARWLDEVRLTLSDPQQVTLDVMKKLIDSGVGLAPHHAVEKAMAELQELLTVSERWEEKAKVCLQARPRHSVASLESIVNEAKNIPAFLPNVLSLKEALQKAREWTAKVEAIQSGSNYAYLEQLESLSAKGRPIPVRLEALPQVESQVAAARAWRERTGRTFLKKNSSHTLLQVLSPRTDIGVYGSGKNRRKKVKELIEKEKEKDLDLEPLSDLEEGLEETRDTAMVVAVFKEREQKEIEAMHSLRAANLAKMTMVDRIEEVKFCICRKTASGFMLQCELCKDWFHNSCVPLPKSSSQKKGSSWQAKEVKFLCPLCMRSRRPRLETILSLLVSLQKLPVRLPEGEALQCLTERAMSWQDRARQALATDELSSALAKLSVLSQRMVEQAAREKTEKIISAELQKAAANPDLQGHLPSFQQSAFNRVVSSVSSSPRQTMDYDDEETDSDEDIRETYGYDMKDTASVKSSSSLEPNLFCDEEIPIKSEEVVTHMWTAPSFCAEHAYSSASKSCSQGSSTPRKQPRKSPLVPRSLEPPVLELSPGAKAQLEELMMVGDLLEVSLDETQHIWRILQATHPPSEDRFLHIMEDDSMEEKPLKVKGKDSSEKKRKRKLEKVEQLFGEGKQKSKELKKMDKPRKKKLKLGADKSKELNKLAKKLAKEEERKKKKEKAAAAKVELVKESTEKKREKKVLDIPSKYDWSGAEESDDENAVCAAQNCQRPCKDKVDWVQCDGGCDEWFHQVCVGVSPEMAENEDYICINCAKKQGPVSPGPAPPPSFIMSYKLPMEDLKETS
T3 sequence (Q9UGL1 whole entry): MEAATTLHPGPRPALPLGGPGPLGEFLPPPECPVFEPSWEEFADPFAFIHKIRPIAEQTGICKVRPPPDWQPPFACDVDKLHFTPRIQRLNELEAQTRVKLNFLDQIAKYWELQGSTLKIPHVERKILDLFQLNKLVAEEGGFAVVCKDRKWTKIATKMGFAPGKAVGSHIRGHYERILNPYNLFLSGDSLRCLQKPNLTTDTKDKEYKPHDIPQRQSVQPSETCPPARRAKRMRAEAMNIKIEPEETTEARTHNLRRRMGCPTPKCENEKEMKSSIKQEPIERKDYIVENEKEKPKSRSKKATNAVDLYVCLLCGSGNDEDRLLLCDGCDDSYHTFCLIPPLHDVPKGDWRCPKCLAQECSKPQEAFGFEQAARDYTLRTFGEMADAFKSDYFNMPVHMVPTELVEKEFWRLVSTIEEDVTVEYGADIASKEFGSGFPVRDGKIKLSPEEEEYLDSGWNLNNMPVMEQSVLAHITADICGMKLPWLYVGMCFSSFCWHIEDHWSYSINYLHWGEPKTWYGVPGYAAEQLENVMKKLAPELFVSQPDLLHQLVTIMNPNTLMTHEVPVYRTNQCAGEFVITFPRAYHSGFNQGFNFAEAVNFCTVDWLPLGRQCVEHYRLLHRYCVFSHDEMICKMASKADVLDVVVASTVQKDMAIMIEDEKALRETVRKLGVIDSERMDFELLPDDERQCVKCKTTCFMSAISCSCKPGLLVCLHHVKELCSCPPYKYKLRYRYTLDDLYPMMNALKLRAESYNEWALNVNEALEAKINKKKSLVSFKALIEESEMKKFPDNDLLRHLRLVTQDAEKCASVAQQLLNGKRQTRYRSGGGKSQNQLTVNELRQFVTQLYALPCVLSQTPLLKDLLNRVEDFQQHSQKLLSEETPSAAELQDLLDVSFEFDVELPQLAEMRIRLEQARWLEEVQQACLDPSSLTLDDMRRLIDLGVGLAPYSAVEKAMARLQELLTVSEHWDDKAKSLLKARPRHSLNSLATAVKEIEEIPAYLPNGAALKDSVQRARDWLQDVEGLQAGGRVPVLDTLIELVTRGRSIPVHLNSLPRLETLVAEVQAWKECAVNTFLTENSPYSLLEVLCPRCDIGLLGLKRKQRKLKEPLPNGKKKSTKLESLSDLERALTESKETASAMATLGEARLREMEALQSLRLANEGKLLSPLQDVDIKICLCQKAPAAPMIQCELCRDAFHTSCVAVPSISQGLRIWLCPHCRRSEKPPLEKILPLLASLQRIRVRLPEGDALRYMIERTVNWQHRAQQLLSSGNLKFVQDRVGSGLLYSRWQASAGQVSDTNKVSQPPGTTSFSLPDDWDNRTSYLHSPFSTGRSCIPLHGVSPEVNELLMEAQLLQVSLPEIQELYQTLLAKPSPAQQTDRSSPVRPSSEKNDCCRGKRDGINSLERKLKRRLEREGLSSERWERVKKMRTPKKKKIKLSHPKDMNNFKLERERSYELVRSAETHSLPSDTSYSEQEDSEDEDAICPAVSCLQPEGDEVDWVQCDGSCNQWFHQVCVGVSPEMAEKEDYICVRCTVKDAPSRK

As for `CCc1c(CO)[nH]c2c(C#N)cnn2c1=O` [Compound I-21], the IC50 on GASC1, against JARID1A and against PLU-1 was not above 1000 nM in each case.
As to `CCc1c(COC)[nH]c2c(C#N)cnn2c1=O` [Compound I-23], the IC50 on GASC1 was 1000 to 10000 nM; against JARID1A, not above 1000 nM; at PLU-1 it was not above 1000 nM.
As for `CCOC(=O)c1[nH]c2c(C#N)cnn2c(=O)c1CC` [Compound I-25], the IC50 at GASC1, against JARID1A and on PLU-1 was not above 1000 nM throughout.
With `CCc1c(C)n(C)c2c(C#N)cnn2c1=O` [Compound I-29], the IC50 was not below 50000 nM on GASC1, 1000 to 10000 nM against JARID1A and 1000 to 10000 nM against PLU-1.
For `CCc1c(C(=O)NC)[nH]c2c(C#N)cnn2c1=O` [Compound I-49], the IC50 on GASC1 was 1000 to 10000 nM; on JARID1A, not above 1000 nM; on PLU-1 it was 1000 to 10000 nM.
Regarding `C=CCc1c(CO)[nH]c2c(C#N)cnn2c1=O` [Compound I-50], on GASC1, the IC50 was in the range of 1000 to 10000 nM.
Still for that read-out and setting: the figure for `C=CCc1c(COC)[nH]c2c(C#N)cnn2c1=O` [Compound I-51] is not above 1000 nM; for `CCc1c(CNC)[nH]c2c(C#N)cnn2c1=O` [Compound I-52] it is 1000 to 10000 nM; for `CCc1c(C(=O)OCc2ccccc2)[nH]c2c(C#N)cnn2c1=O` [Compound I-53] it is 1000 to 10000 nM.
Still for that read-out and setting: the result for `COc1c2c(nc3c(C#N)cnn13)CCCC2` [Compound I-54] reads 1000 to 10000 nM; that for `N#Cc1cnn2c(=O)c3ccccc3[nH]c12` [Compound I-55], 1000 to 10000 nM.
